US20080050759A1, “Screening Assay for Anti-Bacterial Compounds” (Bayer Healthcare AG, priority 2003, published 2008)
Values after ≈ are worked out from the molar mass of the structure shown. Where two headings read alike, the source gives them in different places.

Tests used:
[1] = system: S30 extracts from S. aureus 133; experiment: Gram-positive in vitro coupled transcription/translation (T/T) assay, S. aureus S30 extract; type: biochemical
Protocol: A procedure similar to the preparation of S30 extracts described by Murray et. al. (2) was used for S. aureus. Brain heart infusion (BHI) medium (6 l) was inoculated with 250 ml overnight culture of S. aureus 133 grown in BHI at 37° C. with agitation (170 rpm). Cells were cultured at 37° C. until an OD595nm of 2.5 was reached prior to centrifugation at 6000×g for 15 min at 4° C. Pellets were washed once with 500 ml cold S30-buffer A (10 mM Tris-acetate pH 8.0, 14 mM Mg-acetate, 1 mM DTT, 1 M KCl) and once with 250 ml of cold S30-buffer A containing 50 mM KCl. Pellets were frozen for 1 h at −20° C. or overnight at −70° C., thawed on ice and resuspended to a final volume of 99 ml buffer B (10 mM Tris-acetate pH 8.0, 20 mM Mg-acetate, 1 mM DTT, 50 mM KCl). A 1.5 ml aliquote of lysostaphin (0.8 mg/ml) in buffer B was added to each of three centrifuge tubes and 33 ml of the cell suspension were added. Samples were incubated at 37° C. for 1 h with gentle agitation prior to the addition of 150 μl 0.5 M DTT. Lysed cells were centrifuged for 30 min at 30,000×g at 4° C. and the resulting pellet was washed once with 33 ml S30-buffer B. The pooled supernatants were recentrifuged at 30,000×g for 30 min at 4° C. 100 ml of the supernatant were incubated with 25 ml preincubation buffer (670 mM Tris-acetate pH 8.0, 20 mM Mg-acetate, 7 mM Na3-PEP, 7 mM DTT, 5.5 mM ATP, 70 μM amino acids complete [Promega], 75 μg pyruvate kinase [Sigma]/ml) for 30 min at 37° C. to translate mRNAs. The preincubated supernatants were dialysed at 4° C. against 2 l of 10 mM Tris-acetate pH 8.0, 14 mM Mg-acetate, 1 mM DTT, 60 mM KCl with one buffer change using a Spectra-Por dialysis bag with a molecular weight cutoff of 3,500. The dialysate was gently concentrated by covering the dialysis bag with polyethylene glycol 8,000 powder (Sigma) at 4° C. to a protein concentration of ˜10 mg/ml. The resulting S30 extracts were flash frozen and stored in aliquots at −70° C.
(§1) The final assay volume was 59 μl. Inhibitor (3 μl dissolved in 10% DMSO), plasmid DNA (10 μl of optimal concentration in water pH 8.0) and 46 μl S30 extract [optimal concentration in 23 μl premixed with 23 μl incubation buffer (0.5 M potassium acetate, 87.5 mM Tris/acetate pH 8.0, 67.5 mM ammonium acetate, 50 μg/ml folinic acid, 5 mM DTT, 87.5 mg/ml polyethylene glycol 8000, 5 mM ATP; 1.25 mM of each CTP, GTP and UTP; 0.02 mM amino acids, 50 mM phosphoenolpyruvate trisodium salt, 2.5 mM cyclic AMP, 250 μg of each E. coli tRNA/ml) were added and incubated at 30° C. for 1 h. When using pT7-FF as a template 0.05 μl or 0.1 μl (50 U/μl) T7-RNA-Polymerase (Gibco BRL) were added to the S30 extracts used in the assay. Newly synthesized luciferase was detected by measuring bioluminescence for 60 s in a luininometer after the addition of 50 μl substrate buffer containing luciferine (20 mM Tricine/Cl pH 7.8, 2.67 mM MgSO4, 0.1 mM EDTA, 33.3 mM DTT, 0.27 mM Coenzyme A, 0.47 mM luciferine, 0.53 mM ATP).
MIC (minimal inhibitory concentration) values were determined as described in Example 4. Numbers in square brackets relate to the unit in square brackets as given in the column heading.

[2] = system: S30 extracts from S. pneumoniae 1707/4; experiment: Gram-positive in vitro coupled transcription/translation (T/T) assay, S. pneumoniae S30 extract; type: biochemical
Protocol: S. pneumoniae 1707/4 was grown overnight at 37° C. on agar plates containing 5% sheep blood under microaerophilic conditions. Cells were collected and inoculated into 4.8 l of BHI medium containing 5% bovine serum prior to cultivation at 37° C. under microaerophilic conditions for 5 h. S30 extracts were prepared as described for S. aureus 133 with some modifications. Cells were harvested and washed by centrifugation at 20,000×g for 15 min. The resulting cell pellet was resuspended in 20 ml buffer B, 3 mg lysozyme were added, incubated for 40 min at 37° C. prior to the addition of 75 μl 0.5 M DTT. The S30 sediment was washed with 8 ml buffer B and 7 ml preincubation buffer were added to the pooled supernatants.
as §1
(§2) The shape of the inhibition profiles is more or less similar for these compounds, in case of Streptomycin the lower IC50 value for S. aureus 133 compared to E. faecalis 27263 can be seen. templates pXyl-FF and pT7-FF with S30 extracts of the indicated bacterial strains. […] MIC (minimal inhibitory concentration) values were determined as described in Example 4. Numbers in square brackets relate to the unit in square brackets as given in the column heading.

[3] = system: S30 extracts from E. faecalis 27263; experiment: Gram-positive in vitro coupled transcription/translation (T/T) assay, E. faecalis S30 extract; type: biochemical
Protocol: E. faecalis 26273 was grown overnight in 250 ml BHI medium containing 2% bovine serum at 37° C. under microaerophilic conditions. The overnight culture was used to inoculate 4.8 1 BHI medium, cells were incubated at 37° C. under microaerophilic conditions with agitation (170 rpm) until an OD600 nm of ˜1.6 was reached. Preparation of S30 extracts was done as described for S. aureus with the following exceptions. Cells were harvested and washed at 7000×g at 4° C. for 12 min and resuspended in 100 ml S30-buffer B. For cell lysis 15 mg lysozyme resuspended in 1 ml S30-buffer B were added and incubated for 2 h at 37° C. with agitation. To complete cell lysis extracts were passed once through a French Press at 600 psi.
as §1, §2

E. faecalis 27263 = experiment: Minimum inhibitory concentration, micro broth dilution; type: cell-based
Protocol: (§3) MIC determinations were performed using the micro broth dilution method with an inoculum of 5×10^5 cfu/ml in BHI medium. Growth was read after 24 h of incubation at 37° C. Test compounds were dissolved in dimethyl sulfoxide and diluted to a concentration not higher than 2.5% dimethyl sulfoxide. For S. pneumoniae 1707/4 and E. faecalis 27263 16% bovine serum were added and incubated under microaerophilic conditions.

S. aureus 133 = experiment: as above; type: cell-based
Protocol: as §3

S. pneumoniae 1707/4 = experiment: as above; type: cell-based
Protocol: as §3

[4] = system: S30 extracts derived from all three Gram-positives; experiment: In vitro coupled T/T assay, for all three Gram-positive S30 extracts; type: biochemical, S. aureus, S. pneumoniae, E. faecalis; details: at high concentrations
Protocol: To validate the in vitro coupled T/T assay for screening of potential inhibitors of transcription and translation several antibiotics of known mode of action were tested.

[5] = template pT7-FF with T7 RNA polymerase, read-out: IC50
[6] = template pT7-FF, value in square brackets
[7] = template pXyl-FF, 50% inhibition of in vitro translation of luciferase, read-out: IC50
[8] = template pXyl-FF, value in square brackets
[9] = template pXyl-FF, read-out: IC50
[10] = Enterococcus faecalis, 27263, BHI medium, 16% bovine serum, microaerophilic, 24 h, 37° C., read-out: MIC
[11] = Staphylococcus aureus, 133, BHI medium, 24 h, 37° C., read-out: MIC
[12] = Streptococcus pneumoniae, 1707/4, BHI medium, 16% bovine serum, microaerophilic, 24 h, 37° C., read-out: MIC
[13] = Enterococcus faecalis, 27263, 24 h
[14] = Streptococcus pneumoniae, 1707/4, 24 h
[15] = BHI medium, 16% bovine serum, microaerophilic, 24 h, 37° C.

| Compound | IC50 [1, 5] | IC50 [1, 6] | IC50 [1, 7] | IC50 [1, 8] | IC50 [2, 5] | IC50 [2, 6] | IC50 [3, 5] | IC50 [3, 6] | IC50 [3, 9] | IC50 [3, 8] | MIC (E. faecalis 27263; [10]) | MIC (S. aureus 133; [11]) | MIC (S. pneumoniae 1707/4; [12]) | inhibition in the in vitro coupled T/T assay [4] | MIC (E. faecalis 27263; [13]) | MIC (S. pneumoniae 1707/4; [14]) | MIC (E. faecalis 27263; [15]) | MIC (S. aureus 133; BHI medium, 24 h, 37° C.) | MIC (S. pneumoniae 1707/4; [15]) | MIC (S. aureus 133; Staphylococcus aureus, 133, 24 h) |
| --- | --- | --- | --- | --- | --- | --- | --- | --- | --- | --- | --- | --- | --- | --- | --- | --- | --- | --- | --- | --- |
| CC1(C)S[C@@H]2[C@H](NC(=O)[C@H](N)c3ccccc3)C(=O)N2[C@H]1C(=O)O [Ampicillin] | > 142000 nM | > 50 µg/mL | > 285000 nM | > 100 µg/mL | > 285000 nM | > 100 µg/mL | > 142000 nM | > 50 µg/mL | > 142000 nM | > 50 µg/mL | 3.1 µg/mL (≈ 8.87 µM) | 0.4 µg/mL (≈ 1.14 µM) | 0.12 µg/mL (≈ 0.343 µM) | no or only weak inhibition |  |  |  |  |  |  |
| O=C(N[C@H](CO)[C@H](O)c1ccc([N+](=O)[O-])cc1)C(Cl)Cl [Chloramphenicol] | 7400 nM | 2.4 µg/mL | 9300 nM | 3.0 µg/mL | 11800 nM | 3.8 µg/mL | 16700 nM | 5.4 µg/mL | 14900 nM | 4.8 µg/mL | > 16 µg/mL | 4 µg/mL (≈ 12.4 µM) | 4 µg/mL (≈ 12.4 µM) |  |  |  |  |  |  |  |
| CC[C@H]1OC(=O)[C@H](C)[C@@H](O[C@H]2C[C@@](C)(OC)[C@@H](O)[C@H](C)O2)[C@H](C)[C@@H](O[C@@H]2O[C@H](C)C[C@H](N(C)C)[C@H]2O)[C@](C)(O)C[C@@H](C)C(=O)[C@H](C)[C@@H](O)[C@]1(C)O [Erythromycin] | 200 nM | 0.15 µg/mL | 200 nM | 0.15 µg/mL | 50 nM | 0.04 µg/mL | 400 nM | 0.3 µg/mL | 200 nM | 0.15 µg/mL | > 100 µg/mL | 0.1 µg/mL (≈ 0.136 µM) | 0.1 µg/mL (≈ 0.136 µM) |  |  |  |  |  |  |  |
| CC(=O)NC[C@H]1CN(c2ccc(N3CCOCC3)c(F)c2)C(=O)O1 [Linezolid] | 4100 nM | 1.2 µg/mL | 4100 nM | 1.2 µg/mL | 5800 nM | 1.7 µg/mL | 3400 nM | 1.0 µg/mL | 3100 nM | 0.9 µg/mL | 2 µg/mL (≈ 5.93 µM) | 2 µg/mL (≈ 5.93 µM) | 1 µg/mL (≈ 2.96 µM) |  |  |  |  |  |  |  |
| COc1c(N2C[C@@H]3CCCN[C@@H]3C2)c(F)cc2c(=O)c(C(=O)O)cn(C3CC3)c12 [Moxifloxacin] |  |  |  |  |  |  |  |  |  |  |  | 0.06 µg/mL (≈ 0.149 µM) |  |  | 0.5 µg/mL (≈ 1.25 µM) | 0.25 µg/mL (≈ 0.623 µM) |  |  |  |  |
| CO[C@H]1/C=C/O[C@@]2(C)Oc3c(C)c(O)c4c(O)c(c(/C=N/N5CCN(C)CC5)c(O)c4c3C2=O)NC(=O)/C(C)=C\C=C\[C@H](C)[C@H](O)[C@@H](C)[C@@H](O)[C@@H](C)[C@H](OC(C)=O)[C@@H]1C [Rifampicin] |  |  |  |  |  |  |  |  |  |  | 3.1 µg/mL (≈ 3.77 µM) | < 0.05 µg/mL | < 0.05 µg/mL |  |  |  |  |  |  |  |
| [H]/N=C(/N)N[C@H]1[C@H](O)[C@@H](O)[C@H](O[C@@H]2O[C@@H](C)[C@](O)(C=O)[C@H]2O[C@@H]2O[C@@H](CO)[C@H](O)[C@@H](O)[C@@H]2NC)[C@@H](N/C(N)=N\[H])[C@@H]1O [Streptomycin] | 20 nM | 0.03 µg/mL | 50 nM | 0.07 µg/mL | 10 nM | 0.02 µg/mL | 410 nM | 0.6 µg/mL | 480 nM | 0.7 µg/mL | > 100 µg/mL | 6.25 µg/mL (≈ 10.7 µM) | > 100 µg/mL |  |  |  |  |  |  |  |
| CN(C)[C@@H]1C(=O)C(C(N)=O)=C(O)[C@@]2(O)C(=O)C3=C(O)c4c(O)cccc4[C@@](C)(O)[C@H]3C[C@@H]12 [Tetracyclin] | 600 nM | 0.25 µg/mL | 900 nM | 0.4 µg/mL | 450 nM | 0.2 µg/mL | 2300 nM | 1.0 µg/mL | 1800 nM | 0.8 µg/mL |  |  |  |  |  |  | >100 µg/mL | 0.05 µg/mL (≈ 0.113 µM) | 0.2 µg/mL (≈ 0.45 µM) |  |
| CN[C@H](CC(C)C)C(=O)N[C@H]1C(=O)N[C@@H](CC(N)=O)C(=O)N[C@H]2C(=O)N[C@H]3C(=O)N[C@H](C(=O)N[C@H](C(=O)O)c4cc(O)cc(O)c4-c4cc3ccc4O)[C@H](O)c3ccc(c(Cl)c3)Oc3cc2cc(c3O[C@@H]2O[C@H](CO)[C@@H](O)[C@H](O)[C@H]2O[C@H]2C[C@](C)(N)[C@H](O)[C@H](C)O2)Oc2ccc(cc2Cl)[C@H]1O [Vancomycin] | > 34000 nM | > 50 µg/mL | > 67000 nM | > 100 µg/mL | > 34000 nM | > 50 µg/mL | > 34000 nM | > 50 µg/mL | > 34000 nM | > 50 µg/mL |  |  |  | no or only weak inhibition | 2 µg/mL (≈ 1.38 µM) | 0.25 µg/mL (≈ 0.173 µM) |  |  |  | 0.25 µg/mL (≈ 0.173 µM) |
